For four compounds, IC50 results are on record in article PMC7565988, “Insight into the Anticancer Activity of Copper(II) 5-Methylenetrimethylammonium-Thiosemicarbazonates and Their Interaction with Organic Cation Transporters” (Biomolecules, 2020).

One assay concerns the target T1, OCT3 (Homo sapiens, UniProt O75751).
T1 construct: expressed in transfected cells
T1 sequence (O75751 1-556): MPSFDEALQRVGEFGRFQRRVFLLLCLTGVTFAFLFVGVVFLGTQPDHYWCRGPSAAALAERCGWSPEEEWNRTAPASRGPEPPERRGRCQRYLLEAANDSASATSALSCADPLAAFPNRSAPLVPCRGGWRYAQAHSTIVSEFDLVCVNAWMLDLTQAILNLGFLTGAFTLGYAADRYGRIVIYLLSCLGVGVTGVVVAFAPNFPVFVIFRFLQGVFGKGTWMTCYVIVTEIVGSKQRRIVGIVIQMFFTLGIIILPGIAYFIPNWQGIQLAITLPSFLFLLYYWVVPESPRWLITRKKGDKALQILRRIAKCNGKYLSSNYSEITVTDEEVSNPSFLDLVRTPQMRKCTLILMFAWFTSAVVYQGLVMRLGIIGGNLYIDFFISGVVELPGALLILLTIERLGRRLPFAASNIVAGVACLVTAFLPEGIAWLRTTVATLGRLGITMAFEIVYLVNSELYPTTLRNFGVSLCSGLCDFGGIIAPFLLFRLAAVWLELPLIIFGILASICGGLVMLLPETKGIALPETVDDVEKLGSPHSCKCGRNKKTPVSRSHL
Description: [3H]-MPP+ uptake inhibition assay in HEK-293 cells. The assay is classed as cell-based. The settings on record: HEK cells stably expressing human OCT3; 10 min uptake. On the procedure:
HEK–293 cells (LGC Standards GmbH, Germany) stably expressing human isoforms of wild type organic cation transporters 1–3 (OCT1–3) were cultured in Dulbecco’s modified Eagle’s medium (DMEM; Sigma-Aldrich) with high glucose (4.5 g/L) and L-glutamine (584 mg/L) supplemented with 10% foetal calf serum (FCS; Biowest) and penicillin/streptomycin mixture (50 mg/L; Sigma/Aldrich) at 37 °C in a humidified atmosphere (5% CO2). The selection reagent was Geneticin (150 U/mL; Merck, Germany) for all three cell lines. Cells were seeded onto poly-D-lysine (0.05 mg/mL; Sigma-Aldrich) precoated clear bottom Corning 96 well white assay plate (Sigma-Aldrich) at the density of 4 × 10^4 cells per well 24 h prior to the experiment.
The assay was performed as previously described with slight modification. Briefly, on the day of the experiment, cells were washed once with 100 µL Krebs-HEPES buffer (KHB; 10 mM HEPES, 120 mM NaCl, 3 mM KCl, 2 mM CaCl2·2H2O, 2 mM MgCl2·6H2O, 5 mM D-(+)- glucose, pH 7.3) at room temperature. Cells were preincubated for 10 min in 50 µL of RT KHB containing increasing concentrations of tested compounds previously dissolved in dimethyl sulfoxide (DMSO; final concentration in working solution was 1%). After that, the preincubation solution was quickly removed and replaced with 50 µL of uptake solution containing the aforementioned components with the addition of 50 nM [^3H]-1-methyl-4-phenylpyridinium ([^3H]-MPP^+; 60 Ci/mmol; American Radiolabeled Chemicals, Saint Louis, MO, USA). After the 10 min uptake at RT, the transport was stopped by washing cells with 100 µL of ice-cold KHB and adding 200 µL of Ultima GoldTM XR scintillation cocktail (PerkinElmer, MA, USA). The plates were shaken, placed into Wallac 1450 MicroBeta TriLux Liquid Scintillation Counter and Lumi (GMI, Ramsey, MN, USA) and the released radioactivity was measured for 3 min. Nonspecific [^3H]-MPP^+ uptake was measured in the presence of 100 µM decynium-22 and the data were plotted as a percentage of uptake in the presence of 1% DMSO from which the value of the nonspecific uptake was subtracted. Nonlinear regression analysis (GraphPad Prism version 5.0, GraphPad Software, San Diego, CA, USA) was used for calculation of IC50 values.

The subject of assay [1] is Colo 320 multidrug resistant colonic adenocarcinoma cells (overexpressing ABCB1 (MDR1)-LRP). Nature of the assay: MTT cytotoxicity (24 h) / antiproliferation (72 h) assay. The assay is classed as cell-based. Particulars: Homo sapiens, read-out: Colo320 IC50. The method, then: Human doxorubicin-sensitive Colo 205 (ATCC-CCL-222) and multidrug resistant Colo 320 (overexpressing ABCB1 (MDR1)-LRP (ATCC-CCL-220.1)) colonic adenocarcinoma cell lines were purchased from LGC Promochem, Teddington, UK. The cells were cultured in RPMI 1640 medium supplemented with 10% heat-inactivated fetal bovine serum, 2 mM L-glutamine, 1 mM Na-pyruvate and 100 mM Hepes. The cell lines were incubated at 37 °C, in a 5% CO2, 95% air atmosphere. The semi-adherent human colon cancer cells were detached with Trypsin-Versene (EDTA) solution for 5 min at 37 °C.
In the study non-cancerous human embryonic lung fibroblast MRC-5, human colonic adenocarcinoma cell line (doxorubicin-sensitive Colo 205, multidrug resistant Colo 320) and neuroblastoma cell line SH-SY5Y were used to determine the effect of compounds on cell growth. The effects of increasing concentrations of compounds on cell growth were tested in 96-well flat-bottomed microtiter plates. The compounds were diluted in a volume of 100 μL of medium.
In case of the colonic adenocarcinoma cells, the two-fold serial dilutions of compounds were prepared in 100 μL of RPMI 1640, horizontally. The semi-adherent colonic adenocarcinoma cells were treated with Trypsin–Versene (EDTA) solution. The cells were adjusted to a density of 2 × 10^4 cells in 100 μL of RPMI 1640 medium, and were added to each well, with the exception of the medium control wells. The final volume of the wells containing compounds and cells was 200 μL.
The culture plates were incubated at 37 °C for 24 h; at the end of the incubation period, 20 μL of MTT (thiazolyl blue tetrazolium bromide, Sigma) solution (from a stock solution of 5 mg/mL) were added to each well. After incubation at 37 °C for 4 h, 100 μL of sodium dodecyl sulfate (SDS) (Sigma) solution (10% in 0.01 M HCI) were added to each well and the plates were further incubated at 37 °C overnight. Cell growth was determined by measuring the optical density (OD) at 540/630 nm with Multiscan EX ELISA reader (Thermo Labsystems, Cheshire, WA, USA). […] Curves were fitted by GraphPad Prism software using the sigmoidal dose-response model (comparing variable and fixed slopes).
The method is similar to the one described in the assay for cytotoxic effect. […] The culture plates were incubated at 37 °C for 72 h and after the incubation time, the plates were stained with MTT according to the previous experimental protocol described for the cytotoxicity assay.

As usually defined, the IC50 is the concentration at which inhibition is half-maximal.

Where two headings read alike, the source gives them in different places.

With `CCNC(=S)N/N=C/c1cc(C[N+](C)(C)C)ccc1O` [[H2L^Et]Cl], the IC50 was determined as 63.1 ± 8.9 µM on OCT3, 63.8 ± 3.92 µM in assay [1] (24 h exposure) and 53.3 ± 2.44 µM in assay [1] (72 h exposure).
The corresponding values for `C[N+](C)(C)Cc1ccc(O)c(/C=N/NC(N)=S)c1` [[H2L^H]Cl] are 105 ± 32.8 µM, over 100 µM and 88.8 ± 5.32 µM.
As to `CNC(=S)N/N=C/c1cc(C[N+](C)(C)C)ccc1O` [[H2L^Me]Cl], the values for the IC50 (on OCT3; in assay [1] (24 h exposure); in assay [1] (72 h exposure)) were 103 ± 23.4 µM, over 100 µM and 74.4 ± 3.85 µM, respectively.
On the same counts, the results for `C[N+](C)(C)Cc1ccc(O)c(/C=N/NC(=S)Nc2ccccc2)c1` [[H2L^Ph]Cl] are 27.8 ± 5 µM, over 100 µM and 95.8 ± 1.58 µM.
